Legend:
[1] = cited from earlier work; for pKa 1 / pKa 2 / pKa 3: Table 1; for pKa of the carboxylic acid(s): carboxylic acid / COOH group
[2] = plasma profiles of Na(HT3), Zn(HT3)2 and [Zn(T3)]n after oral administration (Example 11); assay type: in vivo, male Sprague Dawley rats; details: for Cmax average / AUC average / FWHM average (Full Width at Half Maximum): PO capsule; for Cmax average: D = duodenum targeting (Eudragit L100-55) for Zn compounds, S = stomach (uncoated gel cap) for Na(HT3); for AUC average / FWHM average (Full Width at Half Maximum): D for Zn compounds, S for Na(HT3)
Description: Duodenum targeting (D) is accomplished by hand coating caps with Eudragit L100-55 (Acryl-Eze, water solvent) designed to dissolve in the duodenum at pH ca. 5.5. Stomach targeting (S) is by using uncoated gel caps.
The Full Width at Half Maximum (FWHM), where Width is measured along the time axis, and Half Maximum is ½Cmax, is a parameter used to evaluate the degree of extended release of drug absorption.

[3] = pH 5.0 and above; cited from earlier work
[4] = in vivo; cited from earlier work
[5] = physchem

| Structure (SMILES) | pKa 1 [1] | pKa 2 [1] | also measured |
| --- | --- | --- | --- |
| CC1(C)S[C@@H]2[C@H](NC(=O)[C@H](N)c3ccc(O)cc3)C(=O)N2[C@H]1C(=O)O [Amoxicillin] | 6.71 | 9.41 | pKa of the carboxylic acid(s) [1]: 6.71; pKa of the phenol ([1]; phenol group): 9.41 |
| N[C@@H](Cc1cc(I)c(Oc2ccc(O)c(I)c2)c(I)c1)C(=O)[O-].[Na+] [Na(HT3)] |  |  | Cmax average [2]: 0.45 ng/mL; AUC average [2]: 3.71 ng·h/mL; FWHM average (Full Width at Half Maximum) [2]: 4.9 h |
| CO[C@@]1(NC(=O)C2SC(=C(C(N)=O)C(=O)O)S2)C(=O)N2C(C(=O)O)=C(CSc3nnnn3C)CS[C@@H]21 (stereo partly shown) [Cefotetan] | ca. 2 | ca. 3 | pKa of the carboxylic acid(s) [1]: 2-3 |
| O=C(O)c1cn(-c2ccc(F)cc2)c2cc(N3CCNCC3)c(F)cc2c1=O [Sarafloxacin] | 5.62 | 8.18 |  |
| C[C@H]1c2cccc(O)c2C(=O)C2=C(O)[C@]3(O)C(=O)C(C(N)=O)=C(O)[C@@H](N(C)C)[C@@H]3[C@@H](O)[C@@H]21 [Doxycycline] | 3.02 | 7.97 | pKa 3 [1]: 9.15 |
| CCn1cc(C(=O)O)c(=O)c2cc(F)c(N3CCNCC3)nc21 [Enoxacin] | 6.00 | 8.50 |  |
| N[C@@H](Cc1cc(I)c(Oc2ccc(O)c(I)c2)c(I)c1)C(=O)[O-].N[C@@H](Cc1cc(I)c(Oc2ccc(O)c(I)c2)c(I)c1)C(=O)[O-].[Zn+2] [Zn(HT3)2, Bis-T3 Zinc] |  |  | AUC with respect to simulated Cytomel ([2]; PO): comparable AUC; Cmax with respect to simulated Cytomel ([2]; PO): blunted Cmax; Cmax average [2]: 0.24 ng/mL; AUC average [2]: 3.45 ng·h/mL; FWHM average (Full Width at Half Maximum) [2]: 16.6 h |
| CCn1cc(C(=O)O)c(=O)c2cnc(N3CCNCC3)nc21 [Pipemidic acid] | 5.42 | 8.18 |  |
| CN1CCN(c2cc3c(cc2F)c(=O)c(C(=O)O)cn3-c2ccc(F)cc2)CC1 [Difloxacin] | 5.66 | 7.24 |  |
| CN(C)[C@@H]1C(O)=C(C(N)=O)C(=O)[C@@]2(O)C(O)=C3C(=O)c4c(O)cccc4[C@@](C)(O)[C@H]3[C@H](O)[C@@H]12 [Oxytetracycline] | 3.22 | 7.46 | pKa 3 [1]: 8.94 |
| CCCCC(=O)N(Cc1ccc(-c2ccccc2-c2nnn[nH]2)cc1)[C@H](C(=O)O)C(C)C [Valsartan] |  |  | in vitro dissolution [3]: complete and rapid; bioavailability [4]: about 25% |
| N[C@@H](Cc1cc(I)c(Oc2ccc(O)c(I)c2)c(I)c1)C(=O)O [Example T3, triiodothyronine] |  |  | pKa [5]: 8.94 |
| CN(C)[C@@H]1C(O)=C(C(N)=O)C(=O)[C@@]2(O)C(O)=C3C(=O)c4c(O)ccc(Cl)c4[C@@H](O)[C@H]3C[C@@H]12 [Demeclocycline] | 3.37 | 7.36 | pKa 3 [1]: 9.44 |
| CN1CCN(c2c(F)cc3c(=O)c(C(=O)O)cn(CCF)c3c2F)CC1 [Fleroxacin] | 5.46 | 8.00 |  |
| CN(Cc1cnc2nc(N)nc(N)c2n1)c1ccc(C(=O)N[C@@H](CCC(=O)O)C(=O)O)cc1 [Methotrexate] | 4.8 |  |  |
| C=C1c2c(Cl)ccc(O)c2C(=O)C2=C(O)[C@]3(O)C(=O)C(C(N)=O)=C(O)[C@@H](N(C)C)[C@@H]3[C@@H](O)[C@H]12 [Meclocycline] | 4.05 | 6.87 | pKa 3 [1]: 9.59 |
| CN(C)[C@@H]1C(O)=C(C(N)=O)C(=O)[C@@]2(O)C(O)=C3C(=O)c4c(O)ccc(Cl)c4[C@@](C)(O)[C@H]3C[C@@H]12 [Chlortetracycline] | 3.33 | 7.55 | pKa 3 [1]: 9.33 |
| CCN1CCN(c2cc3c(cc2F)c(=O)c(C(=O)O)cn3C2CC2)CC1 [Enrofloxacin] | 3.85 | 6.19 |  |
| CN1C[C@@H]2C[C@H]1CN2c1cc2c(cc1F)c(=O)c(C(=O)O)cn2C1CC1 [Danofloxacin] | 6.07 | 8.56 |  |
| CN1CCN(c2c(F)cc3c(=O)c(C(=O)O)cn4c3c2OCN4C)CC1 [Marbofloxacin] | 5.69 | 8.02 |  |
| CC1COc2c(N3CCN(C)CC3)c(F)cc3c(=O)c(C(=O)O)cn1c23 (stereo not shown) [Ofloxacin] | 6.22 | 7.81 |  |
